Test results reported in US20230210757A1, “IMPROVEMENTS IN OR RELATING TO ORGANIC COMPOUNDS” (Givaudan SA, priority 2020, published 2023).

Tests used:
[1] = tested on: skin explants (Caucasian, Asian, African); experiment: Ex vivo whitening efficacy on skin explants (Fontana Masson staining, expert scoring of basal cells); assay type: cell-based, human; settings: topical daily 14 days, vs untreated, extract 3%, Phenylethyl resorcinol 0.5%, hydroquinone 2%
Protocol: Skin fragments from 3 Asian, 3 African and 3 Caucasian subjects were cut into 1 cm^2 pieces and washed three times using antibiotics. Subcutaneous fat and lower dermis were mechanically removed under a stereomicroscope using a surgical scalpel. Skin biopsies were placed with the epithelium uppermost at an air/liquid interface on culture inserts (filter pore size 12 μm; Costar, VWR International, Fontenay-sous-Bois, France). These inserts were set on twelve wells plate for 14 days at 37° C. in a humidified incubator with 5% CO2. Medium was added to the wells so that the surface of the medium was levelled with the filter. Organ cultures were conserved with Dulbecco's […] (Invitrogen Corporation, Paisley, UK) containing antibiotic, L-glutamine, bovine pituitary extract, growth factors and fetal calf serum (DAP, Neuf-Brisach, France). […] elongata extract 3% (unpurified extract), Phenylethyl resorcinol 0.5% and hydroquinone 2% (SIGMA H9003) as positive control were topically applied daily during 14 days on the epidermis of the skin fragments, in comparison with untreated skin. […] For testing the depigmentation product, the melanin pigment present in the melanocytes and in the contiguous keratinocytes of the basal cell layer of the epidermis from treated skin in comparison with untreated skin is evaluated. Samples were formalin-fixed at day 14 and paraffin-embedded Sections (4 μm) were then stained by Fontana Masson silver method for melanin (see example 4iii). A quantitative numeration of cells containing melanin pigments was made under an optical microscope at ×40 magnification on about 300 basal cells of the epidermis, Two types of cells were counted: • score 1: unpigmented cells or cells presenting rare melanin pigments isolated in the cytoplasm • score 3: cells presenting important melanin pigment in all over the cytoplasm Epidermal melanin content was calculated as the percentage of the epidermal cells in each scoring.

[2] = tested on: pigmented ageing spots on hands; experiment: Clinical test, pigmented spots on hands of Caucasian volunteers, Mexameter analysis; assay type: in vivo, human; settings: cream 0.3% twice daily
Protocol: The study was a double-blind, randomized and placebo controlled study. The assessment was based on an intra-subject comparison between the results obtained with cream HEX at 3% (active product), cream Phenylethyl resorcinol at 0.3% and the cream placebo. The measurements were taken in controlled-atmosphere at a temperature of 21±1° C. and a humidity of 50*10%. This study was performed on 39 volunteers (healthy Caucasian woman aged from 50 to 75 years, mean age: 61.7±5.6 years) having pigmented ageing spots on their hands.
The study was carried out on 2 groups of around 20 volunteers each (39 volunteer in total aged from […]). A cream formula was applied twice daily on hands. Evaluation was carried out before treatment and after 28 and 56 days. Group 1 has applied placebo on one hand and HEX at 3% on the other hand, and group 2 has tested HEX at 3% on one hand versus Phenylethyl Resorcinol at 0.3% on the other hand.
The measurement is based on the absorption principle. The MEXAMETER MX 18 probe emits radiation of three defined wavelengths. A receiver measures the reflection of the light reflected by the skin. The position of the transmitter and receiver ensures that only diffuse light is measured. With a defined amount of emitted light the amount of light absorbed by the skin can be calculated. Melanin is measured by two wavelengths. […]

[3] = tested on: pigmented ageing spots on face; experiment: Clinical test, pigmented spots on face of Asian volunteers, VISIA ageing spot analysis; assay type: in vivo, human; settings: cream 0.3% twice daily
Protocol: (§1) The study was a double-blind, randomized and placebo controlled study. The assessment was based on an inter-subject comparison between the results obtained with cream HEX at 3% (active product), cream Phenylethyl resorcinol at 0.3% and the cream placebo. The measurements were taken in controlled-atmosphere at a temperature of 21±1° C. and a humidity of 50±10%. This study was performed on 72 volunteers (healthy Asian woman aged from 45 to 85 years), having pigmented ageing spots on their faces.
The study was carried out on 2 groups of 36 volunteers each (72 volunteer in total). A cream formula was applied twice daily on face. Evaluation was carried out before treatment and after 28 and 56 days. Group 1 has applied placebo on one side of the face and HEX at 3% on the other side of the face Group 2 has tested HEX at 3% on one side of the face versus Phenylethyl Resorcinol at 0.3% on the other side of the face. […]
Under standard light, visible spots can be evaluated, in particular by visualisation of brown or red skin lesions including freckles, acne scars, hyper-pigmentation and vascular lesions. With cross polarized light in combination with Canfield's RBX® Technology brown spots can be evaluated, in particular by analysis of subsurface melanin conditions. […] The results are given in number of lesions, which is a count of lesions detected by the device, regardless of their size or intensity.

[4] = tested on: pigmented ageing spots on face; experiment: Clinical test, face of Asian volunteers, spectrocolorimeter measurement; assay type: in vivo, human; settings: HEX cream 3% or Phenylethyl resorcinol cream 0.3% twice daily, after 28 and 56 days
Protocol: as §1
The study was carried out on 2 groups of 36 volunteers each (72 volunteer in total). A cream formula was applied twice daily on face. Evaluation was carried out before treatment and after 28 and 56 days. Group 1 has applied placebo on one side of the face and HEX at 3% on the other side of the face Group 2 has tested HEX at 3% on one side of the face versus Phenylethyl Resorcinol at 0.3% on the other side of the face.
Skin colorimetric measurement was done with a MINOLTA CM700-d Spectrophotometer® equipped with a 8 mm diameter head. The Spectrophotometer® converts colours perceived by human to a digital code composed of three parameters:
L*: for clarity (from dark to light),
a*: for the green-to-red spectrum,
b*: for the blue-to-yellow spectrum.
a* and b* are chrominance parameters and L* is a luminance parameter. […]

[5] = tested on: hyperpigmentation spots on face; experiment: Clinical test, hyperpigmented spots on face of African volunteers, Mexameter analysis; assay type: in vivo, human
Protocol: The measurement is based on the absorption principle. The MEXAMETER MX 18 probe emits radiation of three defined wavelengths. A receiver measures the reflection of the light reflected by the skin. The position of the transmitter and receiver ensures that only diffuse light is measured. With a defined amount of emitted light the amount of light absorbed by the skin can be calculated. Melanin is measured by two wavelengths. The wavelengths were chosen according to the different absorption peaks of the melanin pigments. For the measurement of erythema (redness of skin), two different wavelengths are used to measure the absorption capacity of the epidermis. One of them corresponds to the absorption spectrum of haemoglobin. The other wavelength was chosen in order to have other pigments influencing the colour of the skin.
The study was a double-blind, randomized and placebo controlled study. The assessment was based on an inter-subject comparison between the results obtained with cream HEX at 3% (active product), cream Phenylethyl resorcinol at 0.3% and the cream placebo. The measurements were taken in controlled-atmosphere at a temperature of 20° C. and a humidity of 40%. This study was performed on 70 volunteers (aged from 19 to 57 years, having hyperpigmentation spots on their faces.
The study was carried out on 3 groups. A cream formula was applied twice daily on full face. Evaluation was carried out before treatment and after 28 and 56 days. Groups 1 and 2, with 25 volunteers each, have applied placebo and HEX at 3%, respectively, and group 3 with 20 volunteers has applied Phenylethyl Resorcinol at 0.3%.

| Structure (SMILES) | change of percentage of unpigmented cells ([1]; African skin explants) | change of percentage of very pigmented cells ([1]; African skin explants) | change of percentage of unpigmented cells ([1]; Asian skin explants) | change of percentage of very pigmented cells ([1]; Asian skin explants) | change of percentage of unpigmented cells ([1]; Caucasian skin explants) | change of percentage of very pigmented cells ([1]; Caucasian skin explants) | reduction of skin redness compared with placebo [2] | melanin reduction efficacy compared with HEX at 3% ([2]; 28 and 56 days) | reduction of brown spots compared with HEX [3] | reduction of visible spots compared with HEX at 3% [3] | b* parameter on face pigmented spots area [4] | change of melanin content relative to D0 ([5]; HEX cream 3% or Phenylethyl Resorcinol cream 0.3% twice daily, after 56 days) | change of melanin content relative to D0 ([5]; cream 0.3% twice daily, after 28 days) | change of melanin content versus placebo ([5]; cream 0.3%, after 28 days) |
| --- | --- | --- | --- | --- | --- | --- | --- | --- | --- | --- | --- | --- | --- | --- |
| Oc1ccc(O)cc1 [Hydroquinone, hydroquinone] | didn't show any significant results | didn't show any significant results | +54.1% | −25.8% | didn't show any significant impact | didn't show any significant impact | – | – | – | – | – | – | – | – |
| CC(c1ccccc1)c1ccc(O)cc1O (centres unmarked) [Phenylethyl resorcinol, phenylethyl resorcinol] | +91.7% | −22.7% | +110.7% | −29.2% | +38.8% | −4.2% | same efficacy as what we obtained with the placebo | Same melanin reduction efficacy as with HEX at 3% | slightly better than HEX | efficacy very close to those obtained with HEX at 3% | significant reduction of b* parameter | not maintained after 56 days | −2.1% | −4.3% |
